Earlier results as cited in US20040057977A1, “Water-based pest bait compositions having water-sensitive insecticides and methods of making and use thereof” (priority 1999, published 2004).

Assays:
cockroaches = settings: in vivo
[1] = in vivo

SMILES | time to kill cockroaches (cockroaches) | eye and lung irritation [1]
COP(=O)(NC(C)=O)SC (stereo not drawn) [Acephate, O,S-dimethyl acetylphosphoramidothioate] | within about two hours | 
OB(O)O [boric acid] | roughly one week | slight eye and lung irritation
